Results reported in US5096925A, “N-substituted butyramide derivatives” (Ciba-Geigy Corporation, priority 1990, dated 1992).
pIC50: −log10 of the molar value.

Tests used:
[1] = tested on: enkephalinase; experiment: in vivo potentiation of the analgesic effect of met-enkephalin (enkephalinase inhibitory activity in vivo); set-up: species or system mouse; conditions: met-enkephalin (20 ug), intracerebroventricular administration
Experimental: (§1) The enkephalinase inhibitory activity can be determined in vivo, e.g. by measuring the potentiation of the analgesic activity of intracerebrally administered D-Ala^2 -met^5 -enkephalinamide or met-enkephalin in mice. The enkephalinase inhibitory activity is also determined in vivo by measuring the increase in endogenous brain enkephalin levels, or by direct measurement of striatum enkephalinase activity in mice.

[2] = hot plate test for analgesia in the mouse (mean response latency); type: in vivo; conditions: for dose that increases the mean response latency in the hot plate test: mice, intracerebroventricular administration
Text: The analgesic activity is demonstrable by potentiation of the analgesic effects of enkephalin and derivatives thereof, and by classical analgesic tests, such as the phenyl-p-benzoquinone induced writing test [J. Pharmacol. Exp. Therap. 125, 237 (1959)] and the hot plate test in the mouse [J. Pharmaol. Exp. Therap. 107, 385 (1953)].
The analgesic activity can be measured by the hot-plate test method in the mouse as follows and essentially as described in J. Pharmacol. Exp. Therap. 107, 385 (1953).
The compound is administered intravenously or intracerebroventricularly 15 minutes prior to the measurement of the response latency. Male CF, (Charles River) mice (20 g) are allowed food and water ad libitum up to the time of testing. The hot plate test for analgesia utilizes an apparatus with an electrically heated, thermostatically controlled copper plate (Analgesia Meter). A Plexiglas cylinder, 25.5 cm×16 cm (inner diameter) and open at both ends, confines the mice to the central area of the hot plate. The surface temperature is maintained at 55°±0.5° C. Response latency is recorded as the time (seconds) from contact with the hot plate until a jump occurs or at 240 seconds if no response occurs within this time. Animals are individually tested at 15 minutes following intravenous or intracerebroventricular (ICV) injection. Intracerebroventricular injections into the lateral ventricle are carried out according to the method of Haley and McCormick, as described in Brit. J. Pharmacol. 12; 12, 1957.
The mean response latency and standard error are calculated. Significance is determined using Student's unpaired t-test, 2-tailed comparison.

[3] = target: T1, enkephalinase (Rattus norvegicus, UniProt P07861); experiment: in vitro inhibition of enkephalinase (3H-Tyr-gly-gly generation from 3H-Leu-enkephalin, synaptic membranes from rat striatum); type: biochemical; conditions: rat striatum synaptic membrane preparation, pH 6-5, 15 minutes at 30° C., 10^-6 M Bestatin
T1 construct: synaptic membrane preparation from rat striatum; from tissue; host or cells: rat striatum, synaptic membrane preparation
T1 sequence (P07861 1-750): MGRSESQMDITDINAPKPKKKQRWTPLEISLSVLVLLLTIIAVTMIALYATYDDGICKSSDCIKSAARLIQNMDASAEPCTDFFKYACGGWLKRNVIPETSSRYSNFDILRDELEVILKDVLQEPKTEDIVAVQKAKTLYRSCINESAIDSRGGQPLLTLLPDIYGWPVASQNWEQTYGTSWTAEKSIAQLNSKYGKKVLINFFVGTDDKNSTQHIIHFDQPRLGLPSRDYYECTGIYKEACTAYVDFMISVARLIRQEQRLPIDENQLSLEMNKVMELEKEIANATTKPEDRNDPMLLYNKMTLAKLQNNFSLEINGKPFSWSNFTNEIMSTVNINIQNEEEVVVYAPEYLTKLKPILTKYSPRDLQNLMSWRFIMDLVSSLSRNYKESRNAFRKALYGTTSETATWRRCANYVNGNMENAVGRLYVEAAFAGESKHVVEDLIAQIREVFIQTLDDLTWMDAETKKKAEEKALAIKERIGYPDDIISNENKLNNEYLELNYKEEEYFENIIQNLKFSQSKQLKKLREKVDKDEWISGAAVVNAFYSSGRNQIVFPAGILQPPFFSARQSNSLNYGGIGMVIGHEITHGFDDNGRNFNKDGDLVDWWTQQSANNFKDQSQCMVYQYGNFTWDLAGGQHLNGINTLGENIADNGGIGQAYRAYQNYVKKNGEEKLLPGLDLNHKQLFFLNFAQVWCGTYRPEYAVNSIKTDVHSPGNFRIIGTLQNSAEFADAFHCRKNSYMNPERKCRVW
Experimental: The enkephalinane inhibitory activity is determined in vitro by an adaptation of the method of Alstein et al. as described in Life Sciences 28, 185 (1981), as follows:
A mixture of a solution of the test compound in distilled water or distilled water and ethanol diluted with pH 6-5 buffer and of a synaptic membrane preparation from rat striatum is incubated at pH 6-5 with ^3 H-Leu-enkephalin for 15 minutes at 30° C., in the presence of 10^-6 M Bestatin (to inhibit aminopeptidase activity). The reaction is stopped by the addition of 30% acetic acid and the reaction product ^3 H-Tyr-gly-gly is separated from unreacted ^3 H-Leu-enkephalin on a Porapak O column followed by a Cu^++ -chelex column. The ^3 H-Tyr-gly-gly is counted by liquid scintillation. The amount of ^3 H-Tyr-gly-gly generated in the presence of test compound as compared to control is then calculated. An IC50 value representing the concentration of test compound required for 50% inhibition of ^3 H-Tyr-gly-gly generation is then determined graphically.

[4] = tested on: enkephalinase; experiment: in vivo potentiation of the analgesic effect of D-Ala^2-Met^5-enkephalinamide (enkephalinase inhibitory activity in vivo); set-up: species or system mouse; conditions: s.c.
Experimental: as §1

pIC50 [3] | Compound | dose that increases the mean response latency in the hot plate test [2] | further results
 | CCOC(=O)[C@@H](Cc1ccccc1)C[C@H](Cc1ccccc1)C(=O)NCCC(=O)O (relative stereo) [N-[4-ethoxycarbonyl-(R*,R*)-2,4-dibenzylbutyryl]-3-aminopropionic acid] | ~0.03 µg | dose that potentiates the analgesic effect of met-enkephalin [1]: about 0.01 ug
~7.70 | O=C(O)CCNC(=O)[C@@H](Cc1ccccc1)C[C@H](Cc1ccccc1)C(=O)O (relative stereo) [N-[(R*,R*)-2,4-dibenzyl-4-carboxybutyryl]-3-aminopropionic acid] |  | 
~7.70 | O=C(O)CCCNC(=O)[C@@H](Cc1ccccc1)C[C@H](Cc1ccccc1)C(=O)O (relative stereo) [N-[(R*,R*)-2,4-dibenzyl-4-carboxybutyryl]-4-aminobutyric acid] | about 0.1 ug | 
 | CC1(C)O[C@@H]2[C@@H](COC(=O)CCNC(=O)[C@H](Cc3ccccc3)C[C@@H](Cc3ccccc3)C(=O)O)OC(=O)[C@@H]2O1 [17/6, 2,3-O-isopropylidene-D-ribono-(1,4-lactone)-5-yl N-(2S,4S-dibenzyl-4-carboxybutyryl)-3-aminopropionate] |  | dose that potentiates the analgesic effect of D-Ala^2-Met^5-enkephalinamide [4]: 30 mg/kg
 | CC1(C)O[C@H]2O[C@H]([C@H]3COC(C)(C)O3)[C@H](OC(=O)CCNC(=O)[C@H](Cc3ccccc3)C[C@@H](Cc3ccccc3)C(=O)O)[C@H]2O1 [Example 17/10, 1,2:5,6-di-O-isopropylidene-D-glucofuranos-3-yl N-(2S,4S-dibenzyl-4-carboxybutyryl)-3-aminopropionate] |  | minimal effective dose ([2]; iv, 0.25 h, mouse, effective at the dose "and lower"): ≤ 30 mg/kg
~8.10 | O=C(O)CCNC(=O)[C@H](Cc1ccccc1)C[C@@H](Cc1ccccc1)C(=O)O [N-(2S,4S-dibenzyl-4-carboxybutyryl)-3-aminopropionic acid] |  | 
